# Molecular target: T1, Gaussia luciferase (GLuc) (Gaussia princeps (in: crustaceans), UniProt Q9BLZ2)
# T1 sequence (Q9BLZ2 18-185): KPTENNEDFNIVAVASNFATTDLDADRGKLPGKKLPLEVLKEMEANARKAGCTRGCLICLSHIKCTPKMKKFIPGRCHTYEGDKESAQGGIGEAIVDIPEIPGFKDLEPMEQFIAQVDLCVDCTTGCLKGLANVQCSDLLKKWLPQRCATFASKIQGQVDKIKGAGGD
# Experiment: SDS-PAGE adduct formation
# Format: biochemical
# Settings: suicide inhibitor, covalent; oxidized without light; 20-fold molar excess, up to 24 h; 50 mM Tris-HCl pH 8.0
smiles,measurement,value
O=c1c(Cc2ccco2)nc2c(Cc3ccccc3)[nH]c(-c3ccccc3)cn1-2 [furimazine],SDS-PAGE adduct formation; loss of luminescence with coelenterazine,FRZ is a suicide inhibitor of GLuc as it does not produce light with GLuc

# From publication PMC11255867 (Protein Science : A Publication of the Protein Society, 2024)
